# Molecular target: T1, papain (Carica papaya, UniProt P00784)
# T1 construct: purchased Sigma Chem. Co
# T1 sequence (P00784 134-345): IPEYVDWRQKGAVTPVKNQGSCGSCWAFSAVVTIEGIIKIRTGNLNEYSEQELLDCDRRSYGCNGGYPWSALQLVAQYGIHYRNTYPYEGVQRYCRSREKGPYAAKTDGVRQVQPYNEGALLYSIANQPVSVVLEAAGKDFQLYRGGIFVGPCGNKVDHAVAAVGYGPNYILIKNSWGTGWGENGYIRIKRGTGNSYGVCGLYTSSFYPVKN
# Assay: Papain inhibitory activity (milk casein digestion)
# Assay type: biochemical
# Conditions: papain 80 μg/ml 0.5 ml, cysteine, pH 6.8, 1% milk casein, 40° C., 10 minutes
# Procedure, shortened: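 Papain (80 μg/ml stock) preincubated 15 min at 40 °C with inhibitor, cysteine/EDTA activator and phosphate buffer pH 6.8. Then 1% milk casein digested 10 min at 40 °C, stopped with trichloroacetic acid and filtered; filtrate absorbance at 280 nm gives percent inhibition versus no-inhibitor control.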
row,Compound,ID50 (amount of inhibitor for 50% inhibition)
1,"CCCCOC(=O)[C@H]1O[C@@H]1C(=O)O (relative stereo) [EP-142, n-butyl potassium epoxysuccinate]",0.29 γ
2,"CCCCCCCCCCCCOC(=O)[C@H]1O[C@@H]1C(=O)O (relative stereo) [EP-145, n-dodecyl potassium epoxysuccinate]",0.14 γ
3,"CCCOC(=O)[C@H]1O[C@@H]1C(=O)NCC(=O)OCc1ccccc1 (relative stereo) [EP-153, N-(3-n-propyloxycarbonyloxirane-2-carbonyl)-glycine benzyl ester]",17.90 γ
4,"CCOC(=O)[C@H]1O[C@@H]1C(=O)NCC(=O)OCc1ccccc1 (relative stereo) [EP-154, N-(3-ethoxycarbonyloxirane-2-carbonyl)-glycine benzyl ester]",43.90 γ
5,"CCOC(=O)[C@H]1O[C@@H]1C(=O)NCCC(=O)OCc1ccccc1 (relative stereo) [EP-157, N-(3-ethoxycarbonyloxirane-2-carbonyl)-β-alanine benzyl ester]",71.50 γ
6,"CCOC(=O)CCCNC(=O)[C@@H]1O[C@H]1C(=O)OCc1ccc(Cl)cc1 (relative stereo) [EP-189, N-(3-p-chlorobenzyloxycarbonyloxirane-2-carbonyl)-γ-aminobutylic acid ethyl ester]",10.58 γ
7,"O=C(CNC(=O)[C@@H]1O[C@H]1C(=O)OCCC1CCCCC1)OCc1ccccc1 (relative stereo) [EP-207, N-[3-(2'-cyclohexylethoxy)-carbonyloxirane-2-carbonyl]-glycine benzyl ester]",6.52 γ
8,"O=C(CCNC(=O)[C@@H]1O[C@H]1C(=O)OCCCCC1CCCCC1)OCc1ccccc1 (relative stereo) [EP-208, N-[3-(4'-cyclohexylbutoxy)-carbonyloxirane-2-carbonyl]-β-alanine benzyl ester]",13.12 γ
9,"CCOC(=O)CNC(=O)[C@@H]1O[C@H]1C(=O)OCc1ccc2c(Br)cccc2c1 (relative stereo) [EP-220, N-[3-(5'-bromo-2-naphthylmethoxy)-carbonyloxirane-2-carbonyl]-glycine ethyl ester]",9.86 γ
10,"O=C(OC1CCCC(Br)C1)C1OC1C(=O)OC1CCCC(Br)C1 (stereo not drawn) [EP-9, di-3'-cis-bromocyclohexyl epoxysuccinate]",2.20 γ
11,"O=C(O)C1OC1C(=O)OC1CCCC(Br)C1 (stereo not drawn) [EP-10, 3'-cis-bromocyclohexyl potassium epoxysuccinate]",0.06 γ
12,"O=C(OC1CC(Cl)CCC1Br)C1OC1C(=O)OC1CC(Cl)CCC1Br (stereo not drawn) [EP-11, di-2'-cis-bromo-5'-trans-chlorocyclohexyl epoxysuccinate]",2.50 γ
13,"O=C(O)C1OC1C(=O)OC1CC(Cl)CCC1Br (stereo not drawn) [EP-12, 2'-cis-bromo-5'-trans-chlorocyclohexyl potassium epoxysuccinate]",0.07 γ
14,"CC1CCCC(C)C1OC(=O)C1OC1C(=O)OC1C(C)CCCC1C (stereo not drawn) [EP-13, di-2',6'-trans-dimethylcyclohexyl epoxysuccinate]",2.50 γ
15,"CC1CCCC(C)C1OC(=O)C1OC1C(=O)O (stereo not drawn) [EP-14, 2',6'-trans-dimethylcyclohexyl potassium epoxysuccinate]",0.10 γ
16,"O=C(OC1CCC(Br)C(Cl)C1)C1OC1C(=O)OC1CCC(Br)C(Cl)C1 (stereo not drawn) [EP-21, di-3'-cis-chloro-trans-4'-bromocyclohexyl epoxysuccinate]",2.46 γ
17,"O=C(O)C1OC1C(=O)OC1CCC(Br)C(Cl)C1 (stereo not drawn) [EP-22, 3'-cis-chloro-4'-trans-bromocyclohexyl potassium epoxysuccinate]",0.12 γ
18,"O=C(OC1CC(Cl)CC(Cl)C1)C1OC1C(=O)OC1CC(Cl)CC(Cl)C1 (stereo not drawn) [EP-23, di-3',5'-trans-dichlorocyclohexyl epoxysuccinate]",2.45 γ
